Test results: patent publication US20250136934A1, “PRODUCTION OF INDUCED MIDBRAIN DOPAMINERGIC PROGENITOR CELLS FROM PLURIPOTENT STEM CELLS” (NUWACELL BIOTECHNOLOGIES CO., LTD., priority 2023, published 2025)

Tested on: FOXA2+ imDAP cells
Experiment: FACS analysis of FOXA2 expression of imDAP cells derived from hiPSCs
Format: cell-based, human
Settings: 4-step protocol, Day 16
Experimental: • 1. Individualize and collect cells by either Accutase or TrypLE treatment. • 2. Wash cells with 1 ml PBS and pellet cells at 250×g for […]. • 3. Remove supernatant, add ˜200 μl of 4% PFA, mix and fix for 10 min at RT. • 4. Pellet cells at 350×g for 5 min. • 5. Wash cells by 1 ml of FACS buffer and pellet cells at 350×g for 5 min. • 6. Remove supernatant, add 200 μl/tube of FACS buffer/0.1% Triton X, mix for 10 min at RT. • 7. Wash cells by 1 ml of FACS buffer and pellet cells at 350×g for 5 min. • 8. Remove supernatant, add 200 μl/tube of primary antibody diluted in FACS buffer, mix gently, and incubate for 30 min at RT. • 9. Wash cells by 1 ml of FACS buffer and pellet cells at 350×g for 5 min. • 10. Remove supernatant, and add 200 μl of secondary antibody diluted in FACS buffer, mix gently, and incubate for 30 min at RT. • 11. Wash cells by 1 ml of FACS buffer and pellet cells at 300×g for 5 min. • 12. Remove supernatant, add 200 μl of FACS buffer, and run samples on the flow cytometer.
On Day-1, EB formation (Stage 1) was carried out by dissociating hiPSCs (Nuwacell) to form a single-cell suspension and resuspending it in Epic medium (Nuwacell, #RP01001) containing 10 μM Blebbistatin (MCE, #HY-13441) in T25 flasks on a belly dancer and culturing the cells overnight. On Day 0, ventral midbrain floor plate differentiation (Stage 2) was initiated by changing the medium to a Stage 2-1 differentiation medium containing DMEM: F12/B27 (plus Vitamin A) (98:2, v/v) as basal medium and supplemented with 0.2 μM LDN193189, 10 μM SB431542, 1 μg/mL SHH C24II and 1.25 μM CHIR99021 and culturing the cells for 3 Days. From Day 3, the basal medium was changed to DMEM: F12/B27 (minus Vitamin A) (98:2, v/v), and CHIR concentration was boosted to 7.5 μM until Day 10 (Stage 2-2). SB431542 was withdrawn on Day 4, and SHH C24II was withdrawn on Day 8. From Day 10 (Stage 2-3), the medium was changed to a differentiation medium containing DMEM: F12/B27 (minus Vitamin A) (98:2, v/v) as basal medium and supplemented with 0.2 μM LDN193189 and 3 μM CHIR99021. During the cell culture, each of the differentiation media was replaced every day. On Day 16 (at the end of S2-3), EBs were dissociated for single cells and collected for analysis. The cells of each group were stained with FOXA2-PE antibody (BD, #561689), the percentage of FOXA2+ imDAP cells were analyzed by flow cytometry (FIG. 5). The above experiment was repeated for three times and the derived imDAP cells were named as Lot1, Lot2 and Lot3, respectively.
On Day-1, EB formation (Stage 1) was carried out by dissociating hiPSCs (Nuwacell) to form a single-cell suspension and resuspending it in Epic medium (Nuwacell, #RP01001) containing 10 μM Blebbistatin (MCE, #HY-13441) in T25 flasks on a belly dancer and culturing the cells overnight. On Day 0, ventral midbrain floor plate differentiation (Stage 2) was initiated by changing the medium to a Stage 2-1 differentiation medium containing DMEM: F12/B27 (plus Vitamin A) (98:2, v/v) as basal medium and supplemented with 0.2 μM LDN193189, 20 μM SB431542, 1.2 μM CHIR99021, and 1 μg/mL SHH C24II or the combination of SHH agonists including 500 ng/mL SHH C24II, 2 μM Purmorphamine and 10 nM SAG and culturing the cells for 3 days. From Day 3, the basal medium was changed to DMEM: F12/B27 (minus Vitamin A) (98:2, v/v). Cells were exposed to Boost-CHIR concentration of 7.5 μM starting from Day 4 to Day 6 (Stage 2-2), followed by a low CHIR concentration of 1.2 μM (Stage 2-3) until Day 10. […]

`Cc1cnc(-c2cnc(NCCNc3ccc(C#N)cn3)nc2-c2ccc(Cl)cc2Cl)[nH]1` [CHIR, CHIR99021] was tested, and the “percentage of cells positive for FOXA2” value (low CHIR concentration 1.2 μM in Stage 2-3 (Day 8 to Day 10)) was 91.02%, the “percentage of cells positive for FOXA2” value (low CHIR concentration 1.4 μM in Stage 2-3 (Day 8 to Day 10)) was 81.89% and the “percentage of cells positive for FOXA2” value (low CHIR concentration 1.6 μM in Stage 2-3 (Day 8 to Day 10)) was 85.96%.
